Measured values reported in patent US20260234112A1, “COMPOUNDS, COMPOSITIONS, AND METHODS OF USE THEREOF” (Type6 Therapeutics, Inc., priority 2023, published 2026).
One block for each molecule: values may come before it.

Target: T1, Cdk2(2-298) (Homo sapiens, UniProt P24941)
T1 construct: Biotinylated N-terminal avi-tagged Cdk2(2-298) or Cdk1(1-297) was immobilized
Assay: Surface Plasmon Resonance (SPR) compound interaction, Biacore 8K
Format: binding
Conditions: single-cycle kinetics (SCK, "S"), dissociation 1800 sec, read-out: Activity rating (KD)
Summary of the method: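 Biotinylated N-terminal avi-tagged Cdk2(2-298) captured on streptavidin chip at 2500–3000 RU in 25 mM HEPES, 150 mM NaCl, 0.05% Tween20, pH 7.5, 1% DMSO final. Eight 3-fold compound concentrations injected 120 sec at 30 μl/min, multi- or single-cycle kinetics; dissociation 180 sec (MCK) or 1800 sec (SCK).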

Kd: 100 to 1000 nM
SMILES: CN(C)CCNc1nccc(-c2cnccc2Oc2ccc(NS(=O)(=O)c3ccccc3Cl)cc2F)n1 [Compound 85]

Kd: 100 to 1000 nM
SMILES: O=S(=O)(Nc1ccc(Oc2ccncc2-c2ccnc(NCCN3CCOCC3)n2)c(F)c1)c1ccccc1Cl [Compound 86]

Kd: 100 to 1000 nM
SMILES: O=S(=O)(Nc1ccc(Oc2ccncc2-c2ccnc(NCCOCCO)n2)c(F)c1)c1ccccc1Cl [Compound 87]

Kd: ≤ 10 nM
SMILES: O=S(=O)(Nc1ccc(Oc2ccncc2-c2ccnc(NC3COC3)n2)c(F)c1)c1ccccc1Cl [Compound 88]

Kd: 11 to 100 nM
SMILES: O=S(=O)(Nc1ccc(Oc2ccncc2-c2ccnc(NC3COC3)n2)c(F)c1)c1ccccc1Cl [Compound 89]

Kd: 100 to 1000 nM
SMILES: O=S(=O)(Nc1ccc(Oc2ccncc2-c2ccnc(NCCN3CCCC3)n2)c(F)c1)c1ccccc1Cl [Compound 90]

Kd: 100 to 1000 nM
SMILES: CN1CC[C@H](Nc2nccc(-c3cnccc3Oc3ccc(NS(=O)(=O)c4ccccc4Cl)cc3F)n2)C1 [Compound 93]

Kd: 100 to 1000 nM
SMILES: O=S(=O)(Nc1ccc(Oc2ccncc2-c2ccnc(NCCN3CCC3)n2)c(F)c1)c1ccccc1Cl [Compound 94]

Kd: 11 to 100 nM
SMILES: O=S(=O)(Nc1ccc(Oc2ccncc2-c2ccnc(NCCn3ccnc3)n2)c(F)c1)c1ccccc1Cl [Compound 95]

Kd: 100 to 1000 nM
SMILES: O=S(=O)(Nc1ccc(Oc2ccncc2-c2ccnc(NCCNCCO)n2)c(F)c1)c1ccccc1Cl [Compound 97]

Kd: 11 to 100 nM
SMILES: O=S(=O)(Nc1ccc(Oc2ccncc2-c2ccnc(NC3CNC3)n2)c(F)c1)c1ccccc1Cl [Compound 98]

Kd: 11 to 100 nM
SMILES: CN1CC(Nc2nccc(-c3cnccc3Oc3ccc(NS(=O)(=O)c4ccccc4Cl)cc3F)n2)C1 [Compound 102]

Kd: 11 to 100 nM
SMILES: COCCN1CC(Nc2nccc(-c3cnccc3Oc3ccc(NS(=O)(=O)c4ccccc4Cl)cc3F)n2)C1 [Compound 105]

Kd: 100 to 1000 nM
SMILES: O=S(=O)(Nc1ccc(Oc2ccncc2-c2ccnc(NC3CN(CCO)C3)n2)c(F)c1)c1ccccc1Cl [Compound 106]

Second part, the molecule before the results:

SMILES: COCCOCCNc1nccc(-c2cnccc2Oc2ccc(NS(=O)(=O)c3ccccc3Cl)cc2F)n1 [Compound 91]
Kd: 100 to 1000 nM

SMILES: O=S(=O)(Nc1ccc(Oc2ccncc2-c2ccnc(NC3CC4(CNC4)C3)n2)c(F)c1)c1ccccc1Cl [Compound 92]
Kd: ≤ 10 nM

SMILES: O=S(=O)(Nc1ccc(Oc2ccncc2-c2ccnc(NCCc3ncc[nH]3)n2)c(F)c1)c1ccccc1Cl [Compound 96]
Kd: 100 to 1000 nM

SMILES: CN1CC2(CC(Nc3nccc(-c4cnccc4Oc4ccc(NS(=O)(=O)c5ccccc5Cl)cc4F)n3)C2)C1 [Compound 99]
Kd: 100 to 1000 nM

SMILES: CN(CCNc1nccc(-c2cnccc2Oc2ccc(NS(=O)(=O)c3ccccc3Cl)cc2F)n1)S(C)(=O)=O [Compound 100]
Kd: ≤ 10 nM

SMILES: O=S(=O)(Nc1ccc(Oc2ccncc2-c2ccnc(NC3CN(C4COC4)C3)n2)c(F)c1)c1ccccc1Cl [Compound 101]
Kd: 11 to 100 nM

SMILES: CS(=O)(=O)N1CCC[C@H](Nc2nccc(-c3cnccc3Oc3ccc(NS(=O)(=O)c4ccccc4Cl)cc3F)n2)C1 [Compound 103]
Kd: 100 to 1000 nM

SMILES: COCCNCCNc1nccc(-c2cnccc2Oc2ccc(NS(=O)(=O)c3ccccc3Cl)cc2F)n1 [Compound 104]
Kd: 100 to 1000 nM

SMILES: COCCOCCN1CC(Nc2nccc(-c3cnccc3Oc3ccc(NS(=O)(=O)c4ccccc4Cl)cc3F)n2)C1 [Compound 107]
Kd: 100 to 1000 nM

SMILES: N[C@H]1CC[C@H](Nc2nccc(-c3cccnc3Sc3ccc(NS(=O)(=O)c4ccccc4Cl)cc3F)n2)CC1 [Compound 108, N-(4-((3-(2-(((1r,4r)-4-Aminocyclohexyl)amino)pyrimidin-4-yl)pyridin-2-yl)thio)-3-fluorophenyl) 2-chlorobenzenesulfonamide]
Kd: ≤ 10 nM

SMILES: O=S(=O)(Nc1ccc(Sc2ncccc2-c2ccnc(N[C@H]3CCCNC3)n2)c(F)c1)c1ccccc1Cl [Compound 109, N-[3-Fluoro-4-[[3-[2-[[(3S)-3-piperidyl]amino]pyrimidin-4-yl]-2-pyridyl]thio]phenyl] 2-chlorobenzenesulfonamide]
Kd: ≤ 10 nM
